Data: patent US20120121679A1, “VIRICIDAL AND MICROBICIDAL COMPOSITIONS AND USES THEREOF” (University of Georgia Research Foundation, Inc., priority 2009, published 2012)
Where two headings read alike, the source gives them in different places.

Key:
[1] = system: S. enteritidis; assay: Reduction of S. enteritidis in water treated with organic acids and SDS; type: cell-based, Salmonella enteritidis
[2] = system: Feline Calicivirus (FCV); assay: Inactivation of FCV by levulinic acid plus SDS in solution, plaque assay; conditions: 21° C., 1 min
[3] = system: Murine norovirus (MNV-1); assay: Inactivation of MNV-1 by levulinic acid plus SDS in solution, plaque assay; conditions: 21° C., 1 min
[4] = system: spores of Bacillus anthracis Sterne (34F2); type: cell-based
[5] = system: yeast species; assay: Effect of levulinic acids plus SDS at 21° C. on various yeast species; conditions: inoculum […] 10^7 CFU/ml

`CC(=O)CCC(=O)O` [1.0% levulinic acid, levulinic acid] was tested, and the “Salmonella reduction in water” value ([1]; within 30 minutes, listed as 1% by weight levulinic acid) was ≤ 1 log CFU/ml, the “Log Reduction PFU/ml (standard deviation), FCV” value ([2]; listed as 1% Levulinic acid) was 0.32 (±0.19) log PFU/ml and the “Log Reduction PFU/ml (standard deviation), MNV-1” value ([3]; listed as 1% Levulinic acid) was −0.04 (±0.23) log PFU/ml.

In the case of `CC(=O)O` [0.5% acetic acid, acetic acid], the “Salmonella reduction in water” value [1] is reported as 0.7 log CFU/ml.

`CCCCCCCCCCCCOS(=O)(=O)[O-].[Na+]` [2% SDS, sodium dodecyl sulfate] was tested, and the “Recovery levels over time” value ([4]; Experiment A3) was “did not decrease”, the “CFU/ml % recovery (as compared to control flask F)” value (from here on “CFU/ml % recovery”) ([4]; Experiment A3, 0 min) was 119% and the “CFU/ml % recovery” value ([4]; Experiment A3, 10 min) was 65%. For the same molecule, the “CFU/ml % recovery” value ([4]; Experiment A3, 45 min) was 94%, the “CFU/ml % recovery” value ([4]; Experiment A3, 90 min) was 144% and the “CFU/ml % recovery” value ([4]; Experiment A3, 180 min) was 95%. The “CFU/ml % recovery” value ([4]; Experiment A4 absent heat, RT, 0 min) was 85%, the “CFU/ml % recovery” value ([4]; Experiment A4 absent heat, RT, 1 h) was 90% and the “CFU/ml % recovery” value ([4]; Experiment A4 absent heat, RT, 2 h) was 87%. The “CFU/ml % recovery” value ([4]; Experiment A4 absent heat, RT, 3 h) was 98%, the “CFU/ml % recovery” value ([4]; Experiment A4 absent heat, RT, 4 h) was 79% and the “CFU/ml % recovery” value ([4]; Experiment A4 with heat, 65° C., 0 min) was 48%. For the same molecule, the “CFU/ml % recovery” value ([4]; Experiment A4 with heat, 65° C., 1 h) was 53%, the “CFU/ml % recovery” value ([4]; Experiment A4 with heat, 65° C., 2 h) was 74% and the “CFU/ml % recovery” value ([4]; Experiment A4 with heat, 65° C., 3 h) was 68%. For the same molecule, the “CFU/ml % recovery” value ([4]; Experiment A4 with heat, 65° C., 4 h) was 114%, the “CFU/ml % recovery” value ([4]; Experiment A5 absent heat, RT, 0 min) was 122% and the “CFU/ml % recovery” value ([4]; Experiment A5 absent heat, RT, 1 h) was 117%. The “CFU/ml % recovery” value ([4]; Experiment A5 absent heat, RT, 2 h) was 103%, the “CFU/ml % recovery” value ([4]; Experiment A5 absent heat, RT, 3 h) was 113% and the “CFU/ml % recovery” value ([4]; Experiment A5 absent heat, RT, 4 h) was 103%. The “CFU/ml % recovery” value ([4]; Experiment A5 with heat, 65° C., 0 min) was 71%, the “CFU/ml % recovery” value ([4]; Experiment A5 with heat, 65° C., 1 h) was 69% and the “CFU/ml % recovery” value ([4]; Experiment A5 with heat, 65° C., 2 h) was 53%. The “CFU/ml % recovery” value ([4]; Experiment A5 with heat, 65° C., 3 h) was 71%, the “CFU/ml % recovery” value ([4]; Experiment A5 with heat, 65° C., 4 h) was 54% and the “effectiveness compared with water control F” value ([4]; Experiments A4, A5) was “not more effective than the water control F”. For the same molecule, the “Log Reduction PFU/ml (standard deviation), FCV” value ([2]; sulfate) was −0.05 (±0.22) log PFU/ml and the “Log Reduction PFU/ml (standard deviation), MNV-1” value ([3]; sulfate) was −0.23 (±0.59) log PFU/ml.

For `CC(=O)CCC(=O)O` [2.0% levulinic acid, levulinic acid], the “Yeast counts at 2 min” value ([5]; Debaryomyces hansenii) was 4.9 log CFU/ml, the “Yeast counts at 5 min” value ([5]; Debaryomyces hansenii) was 4.6 log CFU/ml and the “Yeast counts at 20 min” value ([5]; Debaryomyces hansenii) was 4.7 log CFU/ml. For the same molecule, the “Yeast counts at 30 min” value ([5]; Debaryomyces hansenii) was 3.0 log CFU/ml, the “Yeast counts at 60 min” value ([5]; Debaryomyces hansenii) was 1.3 log CFU/ml and the “Yeast counts at 2 min” value ([5]; Geotrichum candidum) was 4.4 log CFU/ml. For the same molecule, the “Yeast counts at 5 min” value ([5]; Geotrichum candidum) was 4.3 log CFU/ml, the “Yeast counts at 20 min” value ([5]; Geotrichum candidum) was 3.8 log CFU/ml and the “Yeast counts at 30 min” value ([5]; Geotrichum candidum) was 3.4 log CFU/ml. For the same molecule, the “Yeast counts at 60 min” value ([5]; Geotrichum candidum) was 2.0 log CFU/ml, the “Yeast counts at 2 min” value ([5]; Saccharomyces cerevisiae) was 5.5 log CFU/ml and the “Yeast counts at 5 min” value ([5]; Saccharomyces cerevisiae) was 5.4 log CFU/ml. For the same molecule, the “Yeast counts at 20 min” value ([5]; Saccharomyces cerevisiae) was 5.3 log CFU/ml, the “Yeast counts at 30 min” value ([5]; Saccharomyces cerevisiae) was 5.5 log CFU/ml and the “Yeast counts at 60 min” value ([5]; Saccharomyces cerevisiae) was 5.0 log CFU/ml. The “Yeast counts at 2 min” value ([5]; Zygosaccharomyces bailii) was 5.5 log CFU/ml, the “Yeast counts at 5 min” value ([5]; Zygosaccharomyces bailii) was 5.4 log CFU/ml and the “Yeast counts at 20 min” value ([5]; Zygosaccharomyces bailii) was 5.4 log CFU/ml. For the same molecule, the “Yeast counts at 30 min” value ([5]; Zygosaccharomyces bailii) was 5.4 log CFU/ml, the “Yeast counts at 60 min” value ([5]; Zygosaccharomyces bailii) was 5.3 log CFU/ml and the “Log Reduction PFU/ml (standard deviation), FCV” value ([2]; listed as 2% Levulinic acid) was 0.51 (±0.34) log PFU/ml. For the same molecule, the “Log Reduction PFU/ml (standard deviation), MNV-1” value ([3]; listed as 2% Levulinic acid) was −0.06 (±0.17) log PFU/ml.

`CCCCCCCCCCCCOS(=O)(=O)[O-].[Na+]` [1% SDS, sodium dodecyl sulfate] was tested, and the “Log Reduction PFU/ml (standard deviation), FCV” value ([2]; sulfate) was −0.05 (±0.18) log PFU/ml and the “Log Reduction PFU/ml (standard deviation), MNV-1” value ([3]; sulfate) was 0.03 (±0.12) log PFU/ml.
